Entries after “also recorded” stand apart in the source; their conditions may differ.
Assays:
[1] = tested on: microvascular endothelial cells; assay: VEGF induced proliferation of endothelial cells, combination (Example 10); format: cell-based; conditions: combination of methylnaltrexone and 5-FU
[2] = tested on: SW 480 human colorectal cancer cell line; assay: Effects on SW 480 cancer cell line
VEGF receptor 2 (Flk-1) = assay: Tyrosine phosphorylation of VEGF receptor 2 (immunoprecipitation/immunoblot); format: cell-based, human; conditions: HPMVEC
PDGF receptor = assay: Tyrosine phosphorylation of the PDGF receptor in EC (Example 9); format: cell-based, human; conditions: for induction of tyrosine phosphorylation of the PDGF receptor: EC
VEGF receptor = assay: Tyrosine phosphorylation of the VEGF receptor in EC (Example 9); format: cell-based, human; conditions: for induction of tyrosine phosphorylation of the VEGF receptor: EC
VEGF receptor 1 (Flt-1) = assay: Tyrosine phosphorylation of VEGF receptor 1 (immunoprecipitation/immunoblot); format: cell-based, human; conditions: HPMVEC
S1P3 receptor = assay: Tyrosine phosphorylation of the S1P3 receptor in EC (Example 9); format: cell-based, human; conditions: for induction of tyrosine phosphorylation of the S1P3 receptor: EC
[3] = tested on: human pulmonary microvascular endothelial cells (HPMVEC); assay: Human pulmonary microvascular EC migration assay (Transwell); format: cell-based; conditions: for agonist-induced EC migration (% migration): agonist in lower chamber, Transwell
[4] = tested on: human pulmonary microvascular endothelial cells (HPMVEC); assay: Human pulmonary microvascular EC proliferation assay (CellTiter96 MTS); format: cell-based; conditions: for agonist-induced EC proliferation: serum-free media with agonist, MTS assay
RhoA = RhoA activation assay (RBD bead pull-down, immunoblot); format: cell-based, human; conditions: EC
mu-opioid receptor = mu-opioid receptor (Homo sapiens, UniProt P35372); assay: Serine/threonine phosphorylation of the mu-opioid receptor in EC (Example 9); format: cell-based; conditions: for induction of serine/threonine phosphorylation of the mu-opioid receptor: EC
tumors = assay: Treatment of tumor-bearing mice (Examples 4-7); format: in vivo; conditions: eight weeks; for tumor growth and angiogenesis: antagonist orally 5 mg/kg/day with morphine 0.5 mg/kg/day; for angiogenesis and tumor growth, combination of opioid, opioid antagonist and anticancer agent: with morphine and bevacizumab (Avastin) 5 mg/kg every 14 days
tumor = assay: Study in human cancer patients (Examples 6-7); format: in vivo; conditions: antagonist orally 5 mg/kg/day for eight weeks with opioid and bevacizumab (Avastin)
[5] = J. Foss, et al.; cited from earlier work
[6] = tested on: Lewis lung carcinoma (LLC) tumor; assay: LLC flank tumor model, continuous MNTX infusion; format: in vivo, C57BL/6J mice; conditions: for appearance of macrometastases in the lungs / appearance of micrometastases in the lungs: continuous infusion 10 mg/kg/day
[7] = tested on: microvascular endothelial cells; assay: VEGF induced migration of endothelial cells, combination (Example 10); format: cell-based; conditions: combination of methylnaltrexone and Bevacizumab
[8] = tested on: Lewis lung carcinoma (LLC) cells; assay: LLC cell invasion assay (Chemicon Cell Invasion Assay Kit); format: cell-based; conditions: methylnaltrexone (10 nM or 100 nM)
[9] = tested on: Lewis lung carcinoma (LLC) cells; assay: LLC cell proliferation in vitro; format: cell-based; conditions: treatment in vitro with methylnaltrexone
[10] = doses maintaining plasma levels about 25 and 150 ng/mL (Yuan et al.); cited from earlier work
Flk-1 expression = conditions: morphine-treated mice versus controls (K. Gupta, personal communication); cited from earlier work
[11] = tested on: proliferative retinopathy; conditions: sickle cell disease (Gupta et al., personal communication); cited from earlier work
[12] = pretreatment with MNTX 0.1 μM, 1 hour
[13] = summary statement, concentration dependence

Chain of mu-opioid receptor (P35372 whole entry): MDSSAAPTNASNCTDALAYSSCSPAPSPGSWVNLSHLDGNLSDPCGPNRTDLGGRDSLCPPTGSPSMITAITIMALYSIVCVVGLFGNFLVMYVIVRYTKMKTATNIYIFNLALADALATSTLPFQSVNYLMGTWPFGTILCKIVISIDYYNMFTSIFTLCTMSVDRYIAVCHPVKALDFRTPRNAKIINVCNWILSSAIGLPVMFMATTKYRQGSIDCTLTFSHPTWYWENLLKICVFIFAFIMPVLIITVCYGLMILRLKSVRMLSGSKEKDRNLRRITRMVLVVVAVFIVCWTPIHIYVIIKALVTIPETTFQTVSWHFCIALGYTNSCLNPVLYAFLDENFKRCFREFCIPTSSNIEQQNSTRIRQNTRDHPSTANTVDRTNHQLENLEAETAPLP

O=c1[nH]cc(F)c(=O)[nH]1 [5-FU, 5-fluorouracil]
inhibition of VEGF induced proliferation of endothelial cells by the combination [1]: synergistically inhibit
IC50 ([2]; Homo sapiens, SW480): ~10 µM

C[C@@H](NC(=O)[C@@H](N)Cc1ccc(O)cc1)C(=O)NCC(=O)N(C)[C@@H](Cc1ccccc1)C(=O)NCCO [DAMGO, [D-Ala^2, N-McPhe^4, Gly^5-ol]-enkephalin]
induction of tyrosine phosphorylation of VEGF receptor 2 (Flk-1) (VEGF receptor 2 (Flk-1)): induce tyrosine phosphorylation
induction of tyrosine phosphorylation of the PDGF receptor (PDGF receptor): induced tyrosine phosphorylation
induction of tyrosine phosphorylation of the VEGF receptor (VEGF receptor): induced tyrosine phosphorylation
induction of tyrosine phosphorylation of VEGF receptor 1 (Flt-1) (VEGF receptor 1 (Flt-1)): induce tyrosine phosphorylation
induction of tyrosine phosphorylation of the S1P3 receptor (S1P3 receptor): induced tyrosine phosphorylation
agonist-induced EC migration (% migration) [3]: induce HPMVEC migration; also recorded: induced
agonist-induced EC proliferation [4]: stimulate HPMVEC proliferation; also recorded: induced proliferation
RhoA activation by agonist (RhoA): stimulate RhoA activation

CCCCCCCCCCCCC/C=C/[C@@H](O)[C@@H](N)COP(=O)(O)O [S1P, sphingosine 1-phosphate]
induction of serine/threonine phosphorylation of the mu-opioid receptor (mu-opioid receptor): induced serine/threonine phosphorylation
agonist-induced EC migration (% migration) [3]: induced
agonist-induced EC proliferation [4]: induced proliferation
RhoA activation by agonist (RhoA): activation

C[C@H]1CN(C[C@H](Cc2ccccc2)C(=O)NCC(=O)O)CC[C@@]1(C)c1cccc(O)c1 [alvimopan]
tumor growth and angiogenesis (tumors): reduction in tumor growth and angiogenesis
angiogenesis and tumor growth, combination of opioid, opioid antagonist and anticancer agent (tumors): enhanced result
angiogenesis and tumor growth, combination of opioid, opioid antagonist and anticancer agent (tumor): enhanced result
transpassage across the membrane [5]: some transpassage

C[N@+]1(CC2CC2)CC[C@]23c4c5ccc(O)c4O[C@H]2C(=O)CC[C@@]3(O)[C@H]1C5 [methylnaltrexone, N-methylnaltrexone]
tumor growth and angiogenesis (tumors): reduction in tumor growth and angiogenesis
angiogenesis and tumor growth, combination of opioid, opioid antagonist and anticancer agent (tumors): enhanced result
attenuation of VEGF induced tyrosine phosphorylation of VEGF receptor 2 (VEGF receptor 2 (Flk-1)): attenuates
block of MS and DAMGO induced tyrosine phosphorylation of VEGF receptor 2 (Flk-1) (VEGF receptor 2 (Flk-1)): blocked
attenuation of agonist induced PDGF receptor phosphorylation (PDGF receptor; MNTX pretreatment of EC): attenuated
attenuation of agonist induced VEGF receptor phosphorylation (VEGF receptor; MNTX pretreatment of EC): attenuated
inhibition of VEGF induced proliferation of endothelial cells by the combination [1]: synergistically inhibit
angiogenesis and tumor growth, combination of opioid, opioid antagonist and anticancer agent (tumor): enhanced result
attenuation of VEGF induced tyrosine phosphorylation of VEGF receptor 1 (VEGF receptor 1 (Flt-1)): attenuates
block of MS and DAMGO induced tyrosine phosphorylation of VEGF receptor 1 (Flt-1) (VEGF receptor 1 (Flt-1)): blocked
appearance of macrometastases in the lungs [6]: attenuated
appearance of micrometastases in the lungs [6]: attenuated
appearance of macrometastases in the lungs ([6]; listed as MNTX): attenuated; also recorded: inhibition; also recorded: decrease in lung macrometastases
appearance of micrometastases in the lungs ([6]; listed as MNTX): attenuated; also recorded: inhibition
attenuation of tumor growth ([6]; infusion 10 mg/kg/day, wild-type mice injected with LLC cells): up to 90%
attenuation of agonist induced S1P3 receptor phosphorylation (S1P3 receptor; MNTX pretreatment of EC): attenuated
inhibition of VEGF induced migration of endothelial cells by the combination [7]: synergistically inhibit
reduction of LLC invasion [8]: significantly reduced; also recorded: dose-dependent inhibition
attenuation of agonist induced mu-opioid receptor phosphorylation (mu-opioid receptor; MNTX pretreatment of EC): attenuated
reduction of LLC proliferation [9]: significantly reduced; also recorded: dose-dependent inhibition
tolerability [10]: well tolerated
inhibition of MS, DAMGO and VEGF induced HPMVEC migration ([3]; 100 nM MNTX, 100 nM agonist, 18 hours): inhibited
inhibition of S1P, VEGF, PDGF, morphine and DAMGO induced EC migration [3, 12]: inhibited
inhibition of opioid- and growth factor-induced migration of endothelial cells [3, 13]: in a concentration dependent manner
attenuation of MS, DAMGO and VEGF stimulated HPMVEC proliferation ([4]; 100 nM MNTX, 100 nM agonist, 24 h): attenuated
inhibition of S1P, VEGF, PDGF, morphine and DAMGO induced EC proliferation [4, 12]: inhibited
inhibition of opioid- and growth factor-induced proliferation of endothelial cells [4, 13]: in a concentration dependent manner
inhibition of agonist-induced RhoA activation (RhoA; agonists morphine, DAMGO, VEGF (S1P, PDGF), listed as MNTX): inhibited; also recorded: attenuated
antiproliferation activity ([2]; MNTX alone, P<0.01 compared to control): possesses antiproliferation activity
enhancement of 5-FU's tumoricidal effect ([2]; with 5-FU 10 μM, P<0.05 compared to 5-FU 10 μM only): enhanced 5-FU's tumoricidal effect

CN1CC[C@]23c4c5ccc(O)c4O[C@H]2[C@@H](O)C=C[C@H]3[C@H]1C5 [morphine]
induction of tyrosine phosphorylation of VEGF receptor 2 (Flk-1) (VEGF receptor 2 (Flk-1)): induce tyrosine phosphorylation
induction of tyrosine phosphorylation of the PDGF receptor (PDGF receptor): induced tyrosine phosphorylation
induction of tyrosine phosphorylation of the VEGF receptor (VEGF receptor): induced tyrosine phosphorylation
increase in F11 c-1 expression (Flk-1 expression): 10 fold
induction of tyrosine phosphorylation of VEGF receptor 1 (Flt-1) (VEGF receptor 1 (Flt-1)): induce tyrosine phosphorylation
induction of tyrosine phosphorylation of the S1P3 receptor (S1P3 receptor): induced tyrosine phosphorylation
induction of proliferative retinopathy [11]: induced proliferative retinopathy
agonist-induced EC migration (% migration) [3]: induced
agonist-induced EC migration (% migration) ([3]; listed as MS): induce HPMVEC migration
agonist-induced EC proliferation [4]: induced proliferation
agonist-induced EC proliferation ([4]; listed as MS): stimulate HPMVEC proliferation
RhoA activation by agonist (RhoA): stimulate RhoA activation
RhoA activation by agonist (RhoA; listed as MS): stimulate RhoA activation

Bevacizumab: anti-VEGF mab (Avastin, Genentech)
inhibition of VEGF induced migration of endothelial cells by the combination [7]: synergistically inhibit

PDGF
induction of serine/threonine phosphorylation of the mu-opioid receptor (mu-opioid receptor): induced serine/threonine phosphorylation
agonist-induced EC migration (% migration) [3]: induced
agonist-induced EC proliferation [4]: induced proliferation
RhoA activation by agonist (RhoA): activation

VEGF
induction of serine/threonine phosphorylation of the mu-opioid receptor (mu-opioid receptor): induced serine/threonine phosphorylation
agonist-induced EC migration (% migration) [3]: induce HPMVEC migration; also recorded: induced
agonist-induced EC proliferation [4]: stimulate HPMVEC proliferation; also recorded: induced proliferation
RhoA activation by agonist (RhoA): stimulate RhoA activation

From patent US9717725B2, “Use of opioid antagonists” (THE UNIVERSITY OF CHICAGO, priority 2005, dated 2017)
